Assay results reported in article PMC12609579, “Acute Myeloid Leukemia: A Key Role of DGKα and DGKζ in Cell Viability” (Cells, 2025).
Read-outs that look alike come from different tables or passages of the source.

Tests used:
K562 cells = experiment: Annexin V-FITC/7AAD apoptosis/necrosis flow cytometry, K562; format: cell-based, human; conditions: K562, 24 h
Description: (§1) To determine the type of cell death, apoptotic and necrotic cells were detected by flow cytometry using the Apoptosis Detection Kit Annexin V-FITC (Invitrogen, Carlsbad, CA, USA). For each sample, 500,000 cells, pretreated for 24 h, were stained according to manufacturer’s instructions, using 7-aminoactinomycin D (7AAD) instead of propidium iodide. Samples were analyzed on a BD FACS Symphony A5 flow cytometer (Franklin Lakes, NJ, USA) using BD FACSDiva 9.1 software. Data were gated based on FSC-A vs. FSC-H to exclude cell doublets and FSC-A vs. SSC-A to exclude debris. Different populations were identified as: live (Annexin V− and 7AAD−), necrotic (Annexin− and 7AAD+), early apoptotic (Annexin V+ and 7AAD−) and late apoptotic (Annexin+ and 7AAD+). Data are shown as mean ± SD of at least three independent experiments analyzed by GraphPad Prism 10 (control vs. [inhibitor]).

Kasumi-1 [1] = system: Kasumi-1; set-up: method as in PMID 37392305; conditions: read-out: IC50 (cytotoxic effects), cited from earlier work
THP-1 cells [2] = experiment: alamarBlue cell viability assay, THP-1; format: cell-based; conditions: Homo sapiens
Description: The alamarBlue assay was performed to assess cell viability in presence of chemical inhibitors. A total of 50,000 cells per well were seeded in a 96-wells plate in a volume of 100 μL of complete medium together with 10 μL of 10× concentrated inhibitor solution and then incubated for either 24 or 72 h. Each experimental condition was performed in technical quadruplicates, using cells treated with equal amounts of DMSO vehicle as control and medium alone as background. After incubation, alamarBlue was added to each well at a final concentration of 0.15 mg/mL. The fluorescence of the samples was measured 24 h later using a Spark 10 M Multimode Plate Reader (Tecan, Switzerland) with excitation and emission wavelengths of 535 nm and 590 nm, respectively. For dose–response curve fitting, fluorescence values were normalized according to the following formula:Viability (%) = [(sample mean fluorescence)/(DMSO control mean fluorescence)] ∗ 100
Data are the results of at least five independent experiments analyzed with GraphPad Prism 10 as [inhibitor] vs. normalized response curve (variable slope, after manual outlier removal).

THP-1 cells [3] = experiment: Annexin V-FITC/7AAD apoptosis/necrosis flow cytometry, THP-1; format: cell-based, human; conditions: THP-1, 24 h
Description: as §1

THP-1 cells [4] = experiment: Proteomic profiling (DIA mass spectrometry) of treated THP-1 cells vs DMSO; format: cell-based, human
Description: Cells were lysed in RIPA buffer and sonicated. Proteins were precipitated with cold acetone, pelleted, and resuspended. Reduction was carried out in 25 µL of 100 mM NH4HCO3 with 2.5 µL of 200 mM DTT (Merck, St. Louis, MO, USA) at 60 °C for 45 min, followed by alkylation with 10 µL of 200 mM iodoacetamide (Merck, St. Louis, MO, USA) for 1 h at room temperature in the dark. Excess iodoacetamide was quenched by adding 200 mM DTT. Proteins were then digested with trypsin, dried by SpeedVac, and desalted. Peptides were analyzed on an Ultimate 3000 RSLCnano system coupled to an Orbitrap Exploris 480 equipped with FAIMS (all from Thermo Fisher Scientific). Samples were loaded onto a reversed-phase C18 column (15 cm × 75 µm i.d., Thermo Fisher Scientific) and eluted at 500 nL min^−1 using a 6–95% solvent B gradient over 41 min, followed by 1 min of re-equilibration at 6% B. Data were acquired in positive mode with a spray voltage of 2500 V and FAIMS in standard resolution at a compensation voltage of −45 V. Data-independent acquisition (DIA) was performed with a precursor m/z range of 400–900, using 8 m/z isolation windows with 1 m/z overlap, HCD collision energy of 27%, Orbitrap resolution of 30,000, RF Lens 50%, normalized AGC target 1000, maximum injection time 25 ms, and 1 microscan. DIA data were processed with DIA-NN (v1.8.1) in library-free mode, applying deep-learning prediction for spectra, retention times, and ion mobility. Searches assumed Trypsin/P specificity, precursor charges 1–4, peptide lengths of 7–30 amino acids, and precursor m/z values of 400–900, allowing up to two missed cleavages. Carbamidomethylation of Cys was set as a fixed modification; Met oxidation was set as a variable modification (maximum two per peptide). The false discovery rate was maintained at 1%.
Normalized data from two independent proteomic experiments were obtained, each comparing a treatment condition to DMSO: (1) ritanserin vs. DMSO and (2) BAY 2965501 vs. DMSO. For each condition, three biological replicates were analyzed.
Protein abundance differences were calculated separately for each treatment relative to DMSO using a t-test, generating log2 fold change (log2FC) and adjusted p-values (p-adj). All proteins identified by UniProt ID were annotated with the corresponding gene symbol using QIAGEN Ingenuity Pathway Analysis (IPA; QIAGEN Inc., https://digitalinsights.qiagen.com/IPA, accessed on 5 June 2025). Proteins lacking a gene symbol were annotated as NA [42].
Data were filtered to include only proteins with |log2FC| > 2 and p-adj < 0.05, and retaining those annotated with a gene symbol.
Cells treated with equal amounts of DMSO (vehicle) were used as controls.

[5] = system: normal hematopoietic stem cell samples; set-up: method as in PMID 37392305; conditions: 40 μM; cited from earlier work
[6] = target: serotonin 5-HT2C receptor; set-up: method as in PMID 2860558; conditions: cited from earlier work
Kasumi-1 [7] = system: Kasumi-1; set-up: method as in PMID 37392305; conditions: xenograft mouse models injected with Kasumi-1; cited from earlier work
[8] = system: bone marrow mononuclear cells from primary AML samples; set-up: method as in PMID 37392305; conditions: 40 μM; cited from earlier work
[9] = concentration close to IC50, representative plot

## Cc1nc2sccn2c(=O)c1CCN1CCC(=C(c2ccc(F)cc2)c2ccc(F)cc2)CC1 [ritanserin]
K562 cells; [9]
  Early apoptotic (Annexin V+ 7AAD-): 6.2%
  Late apoptotic (Annexin+ 7AAD+): 1.7%
  Live cells (Annexin V- 7AAD-): 90.1%
  Necrotic (Annexin- 7AAD+): 2.0%
K562 cells; concentration near IC50
  modality of cell death: early apoptosis
Kasumi-1 [1]; Kasumi-1, 24 h
  IC50: 51 µM
Kasumi-1 [1]; Kasumi-1, 72 h
  IC50: 30 µM
THP-1 cells [2]; THP-1, 24 h, THP-1, 24 h treatment then alamarBlue 24 h
  IC50: 37 ± 1.4 µM
THP-1 cells [2]; THP-1, THP-1, 72 h treatment then alamarBlue 24 h
  IC50: 32 ± 1.5 µM
THP-1 cells [3]; [9]
  Early apoptotic (Annexin V+ 7AAD-): 14.4%
  Late apoptotic (Annexin+ 7AAD+): 2.2%
  Live cells (Annexin V- 7AAD-): 83.2%
  Necrotic (Annexin- 7AAD+): 0.2%
THP-1 cells [3]; concentration near IC50
  modality of cell death: early apoptosis
THP-1 cells [4]; THP-1, 24 h, ritanserin 50 µM, BAY 2965501 75 µM, vs DMSO
  number of significantly downregulated proteins: approximately 1200
THP-1 cells [4]; THP-1, 24 h, ritanserin 50 µM, vs DMSO
  number of significantly upregulated proteins: 14
THP-1 cells [4]; THP-1, ritanserin 50 µM, 24 h
  log2FC A2M (P01023) protein abundance vs DMSO: 4.998
  log2FC AAAS (Q9NRG9) protein abundance vs DMSO: 0.1245
  log2FC AACS (Q86V21) protein abundance vs DMSO: 1.025
  log2FC AAK1 (Q2M2I8) protein abundance vs DMSO: -2.961
  log2FC AAMDC (Q9H7C9) protein abundance vs DMSO: -1.488
THP-1 cells [4]; THP-1, |log2FC| > 2 and p-adj < 0.05, with gene symbol, vs DMSO
  number of differentially abundant proteins: 1210
[5]
  apoptosis, % of cells: below 30%
[6]
  Ki: 0.00071 µM
Kasumi-1 [7]
  survival: improved survival
  tumor burden: significant reduction
[8]
  apoptosis, % of cells: up to 70%
